97 compounds from ChEMBL document CHEMBL3507680, “University of Dundee, Gates Library screen for HepG2 cell viability” can be followed below.

SMILES strings stand for the structures.

The data set is described as follows: Human HepG2 cell viability assay in 384 well format. The format is toxicity, cell-based. Set-up: dose 125 nL, time 70.5 hour; cytotoxicity at 70.5 h: concentration not given beside the values. To be noted: HepG2 cells, read-out: Inhibition.
With `Cc1ccsc1C(=O)N1CCn2cnc(COCC3CC3)c2C1`, the cytotoxicity at 70.5 h was -4.7%.

Take `CCN(CC)C(=O)Cn1cc(C(=O)NCCCc2scnc2C)nn1`: the cytotoxicity at 70.5 h was -4.02%.

As to `Cc1cccc2c(=O)c(C(=O)N3CCCC4(CN(C)C(=O)O4)C3)c[nH]c12` (configuration not stated), the cytotoxicity at 70.5 h was -3.6%.

Regarding `COc1ccc(C(=O)NS(=O)(=O)c2ccc(CNC(C)=O)s2)cc1`, the cytotoxicity at 70.5 h was -4.22%.

Take `Cc1nn2c(N3CCCC(C(N)=O)C3)cc(-c3ccccc3)nc2c1C` (configuration not stated): the cytotoxicity at 70.5 h is -3.49%.

Consider `CCc1cc(CN2C[C@H]3CC[C@@H]2CN(C2Cc4ccccc4C2)C3)on1`, for which the cytotoxicity at 70.5 h was -2.96%.

Take `Cn1cc(CN2C[C@@H]3COC[C@]3(C(=O)NCc3cccs3)C2)cn1`: the cytotoxicity at 70.5 h was -6.51%.

Turning to `O=C(c1cccnc1)N1CCc2c(COCC3CC3)cncc2C1`, the cytotoxicity at 70.5 h was -2.77%.

Take `Cc1n[nH]c(C)c1C1COCCN1C(=O)c1ccc(Cl)o1` (configuration not stated): the cytotoxicity at 70.5 h is 18%.

For the compound `Cn1cc(CN2CC[C@H](O)[C@@H]2Cc2ccncc2)cn1`, the cytotoxicity at 70.5 h was found to be 26%.

In the case of `COc1ncc(-c2nccn2CCN(C)C)cn1`, the cytotoxicity at 70.5 h was found to be 9.94%.

Consider `Cc1ccc(-c2nc(C(=O)N(C)C3CCN(C)CC3)cs2)c(C)c1`, for which the cytotoxicity at 70.5 h is -1.64%.

`CC(C(=O)N1CCN(CCOc2ccccc2)CC1)n1cc(Cl)cn1` (configuration not stated): the cytotoxicity at 70.5 h is -9.22%.

As for `Cc1n[nH]c(C)c1Sc1ccccc1NC(=O)CN1CCCC1`, the cytotoxicity at 70.5 h was -3.41%.

With `Cc1nn(C)c(C)c1C(=O)N1CCOCC1CC(=O)c1ccco1` (configuration not stated), the cytotoxicity at 70.5 h is -18.7%.

As to `C[C@@H]1CN(Cc2ccco2)CCN1C(=O)Cc1ccccc1F`, the cytotoxicity at 70.5 h was -10.6%.

As to `Cc1ccc(CCC(=O)N2CCC(Nc3cccnn3)CC2)cc1`, the cytotoxicity at 70.5 h was found to be 1.83%.

With `CC1c2cccn2CCN1C(=O)CCCc1nc(-c2ccco2)no1` (configuration not stated), the cytotoxicity at 70.5 h is -7.42%.

Take `Cc1cc(S(=O)(=O)NCC(C)(C)N)c(F)cc1F`: the cytotoxicity at 70.5 h was -0.878%.

With `Cc1ccsc1C(=O)N1CCC2(CC1)C(=O)N(C)CCN2CC1CC1`, the cytotoxicity at 70.5 h is -12.8%.

As for `CC1(COc2ccccc2)NCCc2[nH]cnc21` (configuration not stated), the cytotoxicity at 70.5 h is -2.27%.

`CC(=O)c1ccc(NC(=O)NC(C(=O)N(C)C)C(C)C)cc1` (configuration not stated): the cytotoxicity at 70.5 h is -4.29%.

Consider `Cc1ccn(-c2ccc(C(=O)N3CCCC(C(N)=O)C3)cc2)n1` (configuration not stated), for which the cytotoxicity at 70.5 h was -9.79%.

Consider `COCCN1CCCC12CCCN(c1ncccn1)C2` (configuration not stated), for which the cytotoxicity at 70.5 h was -2.34%.

Turning to `Cc1noc([C@H]2C[C@@H]3CCN(CC4CCOCC4)C[C@H]3O2)n1`, the cytotoxicity at 70.5 h is -1.09%.

In the case of `CN1C(=O)CC(c2cnn(C)c2)C12CCN(C(=O)c1ccno1)CC2` (configuration not stated), the cytotoxicity at 70.5 h was -12%.

Regarding `O=C(NC1CCC(C(=O)N2CCSCC2)CC1)N1CCOCC1` (configuration not stated), the cytotoxicity at 70.5 h was -5.82%.

`O=C1CC(Cc2ccc(NC(=O)c3cccc(F)c3)cc2)C(=O)N1` (configuration not stated): the cytotoxicity at 70.5 h is -3.69%.

Turning to `CNc1ncc(CN(C)Cc2cc(O)c3cc(F)ccc3n2)cn1`, the cytotoxicity at 70.5 h was -8.18%.

Consider `CN1CCN(c2cc(N3CCCC3CO)ncn2)Cc2ccccc21` (configuration not stated), for which the cytotoxicity at 70.5 h is 17.8%.

As to `Cn1ccnc1-c1cn(CCCc2nnc(N)s2)nn1`, the cytotoxicity at 70.5 h was -19.9%.

Consider `CCCN1CCC(CC(=O)NCc2cc(O)ncn2)CC1`, for which the cytotoxicity at 70.5 h is -11.6%.

With `COc1ccccc1C(=O)N1Cc2cc(C)ccc2OCC1CN(C)C` (configuration not stated), the cytotoxicity at 70.5 h is -8.39%.

For the compound `Cc1cc(N2CCC(Cc3cccnc3)C2)ncn1` (configuration not stated), the cytotoxicity at 70.5 h was -3.49%.

Regarding `CN1C(Cn2cccn2)C[C@@H]2CN(Cc3cccnc3)CC[C@@H]21` (some centres not stated), the cytotoxicity at 70.5 h is -6.35%.

On to `CN(C)CCO[C@H]1CN(C(=O)c2ccc(C#N)cc2)[C@@H]2COC[C@H]12`, for which the cytotoxicity at 70.5 h was -11%.

For `OC1(CNCc2noc(Cc3ccccc3)n2)CNCCOC1` (configuration not stated), the cytotoxicity at 70.5 h was -4.33%.

With `CN1C(=O)CC(c2ccccc2)C12CCN(C(=O)c1ccc[nH]1)CC2` (configuration not stated), the cytotoxicity at 70.5 h was -4.56%.

Take `Cc1noc([C@H]2COC[C@H]3CN(C(=O)Cc4cccs4)C[C@H]32)n1`: the cytotoxicity at 70.5 h was -12.6%.

For the compound `O=C(N1CCOCC1)N1CCC2(CCNC2)C1` (configuration not stated), the cytotoxicity at 70.5 h is -3.15%.

For `O=C(NCCc1cc(=O)[nH]cn1)c1[nH]nc2c1CCCC2`, the cytotoxicity at 70.5 h is -5.79%.

With `Cn1cc(CN2CCC(F)(F)C3(CCN(c4cccc(F)c4)C3)C2)cn1` (configuration not stated), the cytotoxicity at 70.5 h worked out at 43.6%.

For `Cc1noc(C)c1C(=O)N1CCCC1c1c(C)nn(C)c1C` (configuration not stated), the cytotoxicity at 70.5 h was -8.88%.

In the case of `Cc1ccc(CN2CCCC3(COCCN(Cc4c[nH]nn4)C3)C2)s1` (configuration not stated), the cytotoxicity at 70.5 h came out at 19.3%.

For `O=C(Cn1ccnc1)N1CCCC(OCc2cccnc2)C1` (configuration not stated), the cytotoxicity at 70.5 h came out at 29.5%.

Turning to `Cc1cc(C)nc(N2Cc3cnn(Cc4ccc(F)cc4)c3C2)n1`, the cytotoxicity at 70.5 h came out at 13.2%.

In the case of `CC(C)(C)CN(CCC#N)C(=O)Cc1ccc(-n2cnnn2)cc1`, the cytotoxicity at 70.5 h is -10.8%.

As for `Cc1ccc(CN2CC[C@H]3OCC[C@@H](C(=O)NC4CC4)[C@@H]3C2)o1`, the cytotoxicity at 70.5 h was 18.8%.

`Cc1nn(-c2ncnc3[nH]cnc23)c2c1C(C(C)(C)C)CC(=O)N2` (configuration not stated): the cytotoxicity at 70.5 h came to 0.0512%.

`COc1ccccc1CC(=O)NS(=O)(=O)c1ccc(C#N)cc1`: the cytotoxicity at 70.5 h was 4.13%.

As for `CCOc1nnc(CN(CC)CC(=O)NC(C)C)s1`, the cytotoxicity at 70.5 h is -1.99%.

On to `Cc1ccccc1CN(C)C(=O)c1cc(C2CCCN2C)ccn1` (configuration not stated), for which the cytotoxicity at 70.5 h is 10.5%.

Regarding `CCOC(=O)N1CCC2(CCCN(C3CCOCC3)C2=O)C1` (configuration not stated), the cytotoxicity at 70.5 h was -8.17%.

As for `O=C(O)C(c1ccc2c(c1)OCCO2)N1CCCC1` (configuration not stated), the cytotoxicity at 70.5 h is -3.29%.

With `Cc1nc(C2CCCN2CCCNS(C)(=O)=O)no1` (configuration not stated), the cytotoxicity at 70.5 h is -0.166%.

In the case of `CN(C)C(=O)N1CC2(CCNCC2)c2cc(Cl)ccc21`, the cytotoxicity at 70.5 h worked out at 24.1%.

As for `CCc1nn(-c2cc(Oc3ccccc3)nc(C)n2)c(N)c1C#N`, the cytotoxicity at 70.5 h worked out at 2.22%.

On to `Cc1nccnc1CCC1COCCN1C(=O)CCc1c(C)noc1C` (configuration not stated), for which the cytotoxicity at 70.5 h was 15.5%.

As to `O=C(NCc1ccc2c(c1)OCO2)Nc1cccnc1N1CCCC1`, the cytotoxicity at 70.5 h is -2.2%.

For `Cc1cc2n(n1)CC(CNC1CCN(C(=O)c3ccco3)CC1)CN2` (configuration not stated), the cytotoxicity at 70.5 h is -6.69%.

Regarding `Cc1cc(C)n(CC2CCCN2C(=O)c2ccc3c(c2)COC3)n1` (configuration not stated), the cytotoxicity at 70.5 h is -13.3%.

For `CCS(=O)(=O)N1CCN(CC2CC2)c2ncccc2C1`, the cytotoxicity at 70.5 h was -2.09%.

Take `CCC(=O)N1CC[C@@H](c2ccc3ccccc3c2)[C@H](O)C1`: the cytotoxicity at 70.5 h is -10.5%.

On to `CCc1nc(C2CCCN2C(=O)c2ccoc2C)no1` (configuration not stated), for which the cytotoxicity at 70.5 h was -9.91%.

`CCOC1COC2(CCN(Cc3ccc4c(c3)OCO4)CC2)C1` (configuration not stated): the cytotoxicity at 70.5 h was -9.87%.

With `Cc1nccn1CCCNc1nccnc1C#N`, the cytotoxicity at 70.5 h turned out to be 44.8%.

Take `O=C(NCCO)C1(CC2CC(c3ccc(F)cc3)=NO2)CCOCC1` (configuration not stated): the cytotoxicity at 70.5 h worked out at 14.1%.

Regarding `Cc1ccccc1N1CCCN(C(=O)CCCn2ccnc2C)CC1`, the cytotoxicity at 70.5 h was -12.2%.

As to `Cc1csc2ncc(-c3ccnc(N4CCCN(C)CC4)n3)c(=O)n12`, the cytotoxicity at 70.5 h is -0.0913%.

Consider `COc1ccccc1OC1CN(C(=O)Cc2c(C)nc(C)[nH]c2=O)C1`, for which the cytotoxicity at 70.5 h is -2.42%.

Regarding `CC(=O)N1CCN(C)CC(COCc2ccccc2)C1` (configuration not stated), the cytotoxicity at 70.5 h was -3.41%.

`CCn1ncnc1CN(CCOC)Cc1ccc(C)cc1`: the cytotoxicity at 70.5 h is -4.05%.

In the case of `CC(=O)N1CCCC(c2nccnc2Nc2nc(C)cc(C)n2)C1` (configuration not stated), the cytotoxicity at 70.5 h is 13.3%.

Regarding `CC(=O)N1CCO[C@@H]2CN(Cc3ccccc3Cl)C[C@@H]2C1`, the cytotoxicity at 70.5 h was -5.68%.

`CN1CCN(Cc2ccccc2Oc2ccc(C(N)=O)cn2)CC1`: the cytotoxicity at 70.5 h was -6.47%.

`CC(C)n1cnc2c1C(C(=O)N(C)C)N(Cc1ccccc1)CC2` (configuration not stated): the cytotoxicity at 70.5 h was -3.01%.

For `Cc1noc([C@@H]2C[C@H]3OCC[C@H]3N(C(C)C)C2)n1`, the cytotoxicity at 70.5 h came to 6.58%.

On to `Cc1ccc(C)c(S(=O)(=O)NCCC(=O)NCc2ccoc2)c1`, for which the cytotoxicity at 70.5 h was -11.7%.

For the compound `CCn1cnnc1C1CCN(C(=O)c2cccc(OC)c2OC)CC1`, the cytotoxicity at 70.5 h was -7.68%.

For `CC(C)(C)NC(=O)C1CSCN1S(=O)(=O)c1ccccc1S(C)(=O)=O` (configuration not stated), the cytotoxicity at 70.5 h is -1.89%.

On to `COc1ccc(CN(C)CC2(O)CCNC2)cc1` (configuration not stated), for which the cytotoxicity at 70.5 h turned out to be 0.252%.

For the compound `CCc1nc(C)c(C(=O)NCCN2CCN(C(C)=O)CC2)s1`, the cytotoxicity at 70.5 h was -7.15%.

Regarding `CC(NC(=O)NCCCN(C(C)C)S(C)(=O)=O)c1ccncc1` (configuration not stated), the cytotoxicity at 70.5 h was -2.51%.

For `CN1C(=O)CCN(C(=O)C2CCCCC2)c2ccccc21`, the cytotoxicity at 70.5 h is 9.73%.

With `CC(C)NC(=O)N1CCN(CC2CC2)CC2(CC(=O)N(C)C2)C1` (configuration not stated), the cytotoxicity at 70.5 h was -4.82%.

Consider `COc1cc(C)c(C(C)NC(=O)NCCCn2cncn2)cc1OC` (configuration not stated), for which the cytotoxicity at 70.5 h is -5.14%.

As to `Cc1ncc(CN2C[C@H]3C[C@H](OCc4ccccc4)C[C@H]3C2)cn1`, the cytotoxicity at 70.5 h is -6.93%.

On to `Cn1cccc1C1CCCCCN1C(=O)c1ccc(NC2CC2)nc1` (configuration not stated), for which the cytotoxicity at 70.5 h amounted to 12.8%.

With `Cc1ccccc1C(=O)N1CCC2(CCC(C(=O)NCC3CC3)O2)CC1` (configuration not stated), the cytotoxicity at 70.5 h was -18.9%.

Take `O=C(c1cc(F)cc(Cl)c1)N1CCN(CCO)[C@@H]2CS(=O)(=O)C[C@@H]21`: the cytotoxicity at 70.5 h was -0.458%.

On to `CNC(=O)CNC(=O)Nc1ccc(Br)c(F)c1`, for which the cytotoxicity at 70.5 h was -4.08%.

As to `CCN1CCC2(CC1)CC(NC(=O)NC)c1cc(C)ccc12` (configuration not stated), the cytotoxicity at 70.5 h was -6.74%.

For `CC(C)N(C)Cc1cc(=O)n2c(n1)CN(C(=O)c1ccc[nH]1)CCC2`, the cytotoxicity at 70.5 h is 0.329%.

Consider `COCCCNc1nc(CNC(C)=O)cc(-c2ccco2)n1`, for which the cytotoxicity at 70.5 h was -8.32%.

As for `CC(=O)N1CC(c2ncn(C(C)C)n2)c2cc(C(=O)NC3CC3)ccc21` (configuration not stated), the cytotoxicity at 70.5 h was 14.1%.

For `Cc1nc(C)n(C2CCCN(C(=O)Cc3ccc4c(c3)CCC4)C2)n1` (configuration not stated), the cytotoxicity at 70.5 h is -3.72%.

As to `COc1cc(CNCC(C)O)cc(Cl)c1OCc1ccc(C)cc1` (configuration not stated), the cytotoxicity at 70.5 h was 39%.
